# ChEMBL document CHEMBL4385643, “Design of a brain-penetrant CDK4/6 inhibitor for glioblastoma” (Bioorg Med Chem Lett, 2019)
# Assays:
# CDK4/Cyclin D3 = CDK4/Cyclin D3 (Homo sapiens, UniProt P11802)
# Description: Inhibition of human full length GST-tagged CDK4 (1 to 303(end) amino acids)/Cyclin D3 (1 to 292(end) amino acids) expressed in baculovirus expression system assessed as inhibition constant using Ulight-4E-BP1 as substrate preincubated for 30 mins followed by substrate addition and incubated for 90 mins by TR-FRET assay
# CDK6/cyclin D3 = CDK6/cyclin D3 (Homo sapiens, UniProt Q00534)
# Description: Inhibition of human full length GST-tagged CDK6 (1 to 326(end) amino acids)/Cyclin D3 (1 to 292(end) amino acids) expressed in baculovirus expression system assessed as inhibition constant using Ulight-4E-BP1 as substrate preincubated for 30 mins followed by substrate addition and incubated for 90 mins by TR-FRET assay
# CDK1/Cyclin A = CDK1/Cyclin A (Homo sapiens, UniProt P06493)
# Description: Inhibition of human recombinant full length GST-tagged CDK1/Cyclin A2 expressed in sf9 insect cells assessed as inhibition constant using Ulight-4E-BP1 as substrate preincubated for 30 mins followed by substrate addition and incubated for 90 mins by TR-FRET assay
# mouse Bcrp1 = assay: in vitro; settings: dog
# Description: Efflux ratio in MDCK2 expressing mouse bcrp1
# [1] = Lipophilicity, log D of the compound by microscale shake flask method; format: physicochemical; settings: octanol/water
# human MDR1 = assay: in vitro; settings: dog, MDCK-MDR1
# Description: Efflux ratio in gMDCKI cells expressing human MDR1
# [2] = molecular target: Cyclin-dependent kinase 2/cyclin E1 (Homo sapiens, UniProt P24941); assay: Inhibition of human full length GST-tagged CDK2 (1 to 298(end) amino acids)/Cyclin E1 (1 to 410(end) amino acids) expressed in baculovirus expression system assessed as inhibition constant using Ulight-4E-BP1 as substrate preincubated for 30 mins followed by substrate addition and incubated for 90 mins by TR-FRET assay
# CDK1/Cyclin A, sequence (P06493 whole entry): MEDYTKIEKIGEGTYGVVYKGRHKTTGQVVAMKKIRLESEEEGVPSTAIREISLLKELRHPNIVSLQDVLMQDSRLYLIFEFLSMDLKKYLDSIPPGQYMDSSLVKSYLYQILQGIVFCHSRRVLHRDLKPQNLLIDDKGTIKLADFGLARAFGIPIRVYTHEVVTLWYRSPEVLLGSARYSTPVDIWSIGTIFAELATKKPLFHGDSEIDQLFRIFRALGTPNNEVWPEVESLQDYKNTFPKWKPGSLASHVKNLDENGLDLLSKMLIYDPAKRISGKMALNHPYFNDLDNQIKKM
# CDK1/Cyclin A, sequence (P20248 whole entry, further chain): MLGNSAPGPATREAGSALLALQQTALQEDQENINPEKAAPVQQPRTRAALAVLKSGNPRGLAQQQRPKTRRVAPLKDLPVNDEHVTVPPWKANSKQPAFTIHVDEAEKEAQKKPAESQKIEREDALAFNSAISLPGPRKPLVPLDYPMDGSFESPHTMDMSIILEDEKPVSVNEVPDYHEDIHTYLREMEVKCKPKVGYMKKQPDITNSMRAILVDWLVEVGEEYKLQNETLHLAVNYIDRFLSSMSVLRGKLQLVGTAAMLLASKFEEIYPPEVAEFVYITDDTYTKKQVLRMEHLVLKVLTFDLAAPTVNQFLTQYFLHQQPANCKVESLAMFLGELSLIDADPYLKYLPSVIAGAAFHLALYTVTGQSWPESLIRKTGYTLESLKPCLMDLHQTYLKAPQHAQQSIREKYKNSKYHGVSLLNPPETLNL
# CDK4/Cyclin D3, sequence (P11802 whole entry): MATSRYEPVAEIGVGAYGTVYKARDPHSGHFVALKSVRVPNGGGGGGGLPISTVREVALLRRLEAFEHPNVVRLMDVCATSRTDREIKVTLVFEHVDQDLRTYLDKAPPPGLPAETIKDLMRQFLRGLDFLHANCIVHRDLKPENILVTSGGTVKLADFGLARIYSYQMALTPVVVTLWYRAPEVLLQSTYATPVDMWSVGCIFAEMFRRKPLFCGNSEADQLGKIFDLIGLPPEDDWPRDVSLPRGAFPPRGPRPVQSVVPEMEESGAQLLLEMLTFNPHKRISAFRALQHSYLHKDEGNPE
# CDK4/Cyclin D3, sequence (P30281 whole entry, further chain): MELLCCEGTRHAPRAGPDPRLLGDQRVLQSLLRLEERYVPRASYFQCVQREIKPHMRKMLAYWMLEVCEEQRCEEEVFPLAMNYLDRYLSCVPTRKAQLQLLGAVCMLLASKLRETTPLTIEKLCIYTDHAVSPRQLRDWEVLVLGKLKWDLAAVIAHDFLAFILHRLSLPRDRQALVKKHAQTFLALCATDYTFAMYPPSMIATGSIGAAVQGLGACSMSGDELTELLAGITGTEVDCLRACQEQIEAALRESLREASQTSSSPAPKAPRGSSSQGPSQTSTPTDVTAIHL
# CDK6/cyclin D3, sequence (P30281 whole entry): as the sequence (P30281 whole entry, further chain) above
# CDK6/cyclin D3, sequence (Q00534 whole entry): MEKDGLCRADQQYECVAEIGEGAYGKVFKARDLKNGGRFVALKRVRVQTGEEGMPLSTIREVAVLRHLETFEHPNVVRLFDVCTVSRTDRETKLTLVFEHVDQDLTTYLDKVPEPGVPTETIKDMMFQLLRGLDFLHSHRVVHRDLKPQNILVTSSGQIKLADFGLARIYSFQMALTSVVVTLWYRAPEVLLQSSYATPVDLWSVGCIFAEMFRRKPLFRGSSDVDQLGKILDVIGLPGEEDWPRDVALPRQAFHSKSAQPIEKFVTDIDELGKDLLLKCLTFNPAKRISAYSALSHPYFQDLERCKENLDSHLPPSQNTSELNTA
Ki (CDK4/Cyclin D3),Ki (CDK6/cyclin D3),Ki (CDK1/Cyclin A),efflux ratio (mouse Bcrp1),logD [1],efflux ratio (human MDR1),Ki [2],Compound
< 0.3 nM,1.7 nM,63 nM,,,,,C[C@@H]1CCCCn2ncc(-c3nc(Nc4ccc(N5CC6(CN(C)C6)C5)cn4)ncc3F)c21
3.8 nM,38 nM,980 nM,,,,,C[C@H]1CCCn2ncc(-c3nc(Nc4ccc(N5CCN(C)CC5)cn4)ncc3F)c21
< 0.3 nM,3.3 nM,110 nM,,,,,C[C@@H]1CCCCn2ncc(-c3nc(Nc4ccc(N5CC6(CN(CCCF)C6)C5)cn4)ncc3F)c21
0.4 nM,7.9 nM,70 nM,,,,,C[C@@H]1CCCCn2ncc(-c3nc(Nc4ccc(N5CCOCC5)cn4)ncc3F)c21
1 nM,10 nM,210 nM,,,,,C[C@@H]1CCCCn2ncc(-c3nc(Nc4ccc(N5CCC(N(C)C)CC5)cn4)ncc3F)c21
0.8 nM,18 nM,280 nM,,,,,C[C@@H]1CCCCn2ncc(-c3nc(Nc4ccc(C5CCN(C)CC5)cn4)ncc3F)c21
20 nM,720 nM,270 nM,,,,320 nM,COCCN1CCC(Nc2nccc(-c3cn[nH]c3C(C)C)n2)CC1

# Second part, the compound before the results:
Compound,Ki (CDK4/Cyclin D3),Ki (CDK6/cyclin D3),Ki (CDK1/Cyclin A),efflux ratio (mouse Bcrp1),logD [1],efflux ratio (human MDR1),Ki [2]
C[C@@H]1CCCCn2ncc(-c3nc(Nc4ccc(N5CC6(C5)CN(C5COC5)C6)cn4)ncc3F)c21,0.4 nM,4.3 nM,77 nM,,,,
CN1CCN(c2ccc(Nc3ncc(F)c(-c4cnn5c4CCCCC5)n3)nc2)CC1,1.8 nM,24 nM,1300 nM,,,,
CN1CCN(c2ccc(Nc3ncc(F)c(-c4cnn5c4CCCC5)n3)nc2)CC1,3.6 nM,40 nM,2000 nM,,,,
C[C@@H]1CCCCn2ncc(-c3nc(Nc4ccc(N5CC6(CN(CCF)C6)C5)cn4)ncc3F)c21,< 0.3 nM,1.6 nM,52 nM,0.9,2.8,2,
COCCN1CCC(Nc2nccc(-c3cnn4c3CCCC4)n2)CC1,210 nM,7400 nM,5200 nM,,,,7500 nM
C[C@@H]1CCCn2ncc(-c3nc(Nc4ccc(N5CCN(C)CC5)cn4)ncc3F)c21,1.4 nM,19 nM,770 nM,,,,
CC(C)c1c(-c2nc(Nc3ccc(N4CCN(C)CC4)cn3)ncc2F)cnn1C,2.7 nM,32 nM,530 nM,,,,
CCN1CCN(Cc2ccc(Nc3ncc(F)c(-c4cnn5c4[C@H](C)CCCC5)n3)nc2)CC1,1.3 nM,37 nM,630 nM,,,,
CN1CCN(c2ccc(Nc3nccc(-c4cnn5c4CCCC5)n3)nc2)CC1,61 nM,1900 nM,29000 nM,,,,15000 nM
CC(C)c1n[nH]cc1-c1ccnc(NC2CCCCC2)n1,18 nM,450 nM,24 nM,,,,22 nM
